The text below walks through data of patent publication US9840513B2 (AbbVie S.à.r.l., priority 2015, dated 2017).

The target in the test is T1, F508delCFTR cell surface expression in CFBE41o-F508delCFTR-HRP cells (Homo sapiens, UniProt P13569, DEL508-508).
T1 construct: fused on or other part: Horseradish peroxidase (HRP) reporter inserted in the fourth exofacial (extracellular) loop of CFTR; expression is doxycycline-inducible
The experiment in a line: Cell Surface Expression-Horse Radish Peroxidase (CSE-HRP) Assay. In kind it is cell-based. The following applies: for EC50: CFBE41o-F508delCFTR-HRP cells, 18-24 hours at 33° C., 8-point curve, highest concentration 20 μM; for Maximum % activity (%): maximum at any tested concentration, normalized to on-plate positive control (3 μM). In a few lines: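 CFBE41o- cells with HRP-tagged F508delCFTR, expression induced by 0.5 μg/mL doxycycline for 72 h at 37 °C, then compound for 18-24 h at 33 °C (8-point, 3-fold, top 20 μM). Surface HRP measured by luminol luminescence; % activity normalised to 3 μM positive-control corrector; EC50 from variable-slope sigmoidal fit, three replicate plates.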

T1 sequence (P13569 with tags, fused parts or gaps DEL508-508 limits assumed): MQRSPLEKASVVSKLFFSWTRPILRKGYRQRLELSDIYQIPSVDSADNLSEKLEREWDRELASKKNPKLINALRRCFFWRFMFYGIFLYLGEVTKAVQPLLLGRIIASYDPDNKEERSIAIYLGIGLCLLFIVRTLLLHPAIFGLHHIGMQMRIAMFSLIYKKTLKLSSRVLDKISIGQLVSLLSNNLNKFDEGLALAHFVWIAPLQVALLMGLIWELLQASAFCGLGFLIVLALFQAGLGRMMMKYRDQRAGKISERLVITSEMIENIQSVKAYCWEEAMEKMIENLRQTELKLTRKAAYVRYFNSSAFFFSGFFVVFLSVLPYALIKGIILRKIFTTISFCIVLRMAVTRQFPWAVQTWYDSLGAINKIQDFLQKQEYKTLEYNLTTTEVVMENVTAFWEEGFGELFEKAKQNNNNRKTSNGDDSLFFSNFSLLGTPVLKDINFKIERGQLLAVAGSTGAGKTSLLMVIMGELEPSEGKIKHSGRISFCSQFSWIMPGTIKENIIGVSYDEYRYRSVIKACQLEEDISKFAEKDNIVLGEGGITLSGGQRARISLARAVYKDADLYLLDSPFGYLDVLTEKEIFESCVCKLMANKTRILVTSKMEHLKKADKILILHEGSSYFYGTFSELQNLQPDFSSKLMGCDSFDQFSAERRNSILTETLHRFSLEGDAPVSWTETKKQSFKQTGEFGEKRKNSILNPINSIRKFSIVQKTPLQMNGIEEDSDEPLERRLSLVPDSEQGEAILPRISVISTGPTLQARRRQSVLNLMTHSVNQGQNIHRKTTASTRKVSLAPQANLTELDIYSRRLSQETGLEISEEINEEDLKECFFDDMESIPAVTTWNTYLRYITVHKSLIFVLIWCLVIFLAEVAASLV
T1 sequence (P13569 919-1480 limits assumed, stated change not applied): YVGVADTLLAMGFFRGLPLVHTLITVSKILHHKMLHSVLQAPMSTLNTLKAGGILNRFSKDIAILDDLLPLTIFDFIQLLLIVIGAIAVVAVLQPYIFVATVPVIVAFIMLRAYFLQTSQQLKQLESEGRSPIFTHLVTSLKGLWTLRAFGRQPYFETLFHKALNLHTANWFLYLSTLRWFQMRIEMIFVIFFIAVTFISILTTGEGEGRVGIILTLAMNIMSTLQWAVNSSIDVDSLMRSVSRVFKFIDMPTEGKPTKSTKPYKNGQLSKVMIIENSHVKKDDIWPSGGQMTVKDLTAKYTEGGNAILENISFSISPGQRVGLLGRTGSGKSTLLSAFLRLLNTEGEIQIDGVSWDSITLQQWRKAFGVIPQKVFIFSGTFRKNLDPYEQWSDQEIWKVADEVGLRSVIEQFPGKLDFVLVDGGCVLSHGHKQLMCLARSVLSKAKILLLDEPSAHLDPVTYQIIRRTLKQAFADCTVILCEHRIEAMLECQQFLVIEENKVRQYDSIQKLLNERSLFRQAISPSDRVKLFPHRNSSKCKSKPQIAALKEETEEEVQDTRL

One may read the EC50 as the concentration giving half of the maximal effect. Low readings indicate higher potency in that assay, high ones lower potency in that assay. As for `C[C@@]1(C(=O)N[C@@H]2C[C@H]([C@H]3CC[C@H](C(=O)O)CC3)Oc3cc(OC(F)(F)F)ccc32)CCc2cc3c(cc21)OC(F)(F)O3` [Example 169, trans-4-[(2R,4R)-4-{[(5R)-2,2-difluoro-5-methyl-6,7-dihydro-2H,5H-indeno[5,6-d][1,3]dioxole-5-carbonyl]amino}-7-(trifluoromethoxy)-3,4-dihydro-2H-1-benzopyran-2-yl]cyclohexane-1-carboxylic acid], the EC50 came to 1260 nM and the “Maximum % activity (%)” value turned out to be 107%.

On to `COc1ccc2c(c1)OC(c1ccc(=O)n(C[C@@H](O)CO)n1)C[C@H]2NC(=O)[C@@]1(C)COc2cc3c(cc21)OC(F)(F)O3` (stereo partly drawn) [Example 196, (7R)—N-[(4R)-2-{1-[(2R)-2,3-dihydroxypropyl]-6-oxo-1,6-dihydropyridazin-3-yl}-7-methoxy-3,4-dihydro-2H-1-benzopyran-4-yl]-2,2-difluoro-7-methyl-6,7-dihydro-2H-furo[2,3-f][1,3]benzodioxole-7-carboxamide], for which the EC50 was 400 nM and the “Maximum % activity (%)” value is recorded as 105%.

With `CCCN(CCO)C(=O)c1ccc([C@H]2C[C@@H](NC(=O)[C@@]3(C)COc4cc5c(cc43)OC(F)(F)O5)c3ccc(OC)cc3O2)nc1` [Example 209, 6-[(2R,4R)-4-{[(7R)-2,2-difluoro-7-methyl-6,7-dihydro-2H-furo[2,3-f][1,3]benzodioxole-7-carbonyl]amino}-7-methoxy-3,4-dihydro-2H-1-benzopyran-2-yl]-N-(2-hydroxyethyl)-N-propylpyridine-3-carboxamide], the EC50 was determined as 30 nM and the “Maximum % activity (%)” value came out at 122%.

Regarding `COC(=O)c1ccc([C@H]2C[C@@H](NC(=O)C3(C)COc4cc5c(cc43)OC(F)(F)O5)c3ccc(OC)cc3O2)cc1` (stereo partly drawn) [Example 15, methyl 4-{(2R,4R)-4-[(2,2-difluoro-7-methyl-6,7-dihydro-2H-furo[2,3-f][1,3]benzodioxole-7-carbonyl)amino]-7-methoxy-3,4-dihydro-2H-1-benzopyran-2-yl}benzoate], a half-maximal effect (EC50) was put at 150 nM and the “Maximum % activity (%)” value is on record as 143%.

Take `COC(=O)c1cccc(-n2nc(C3CC3)cc(NC(=O)C3(C)COc4cc5c(cc43)OC(F)(F)O5)c2=O)c1` (centres unmarked) [Example 40, methyl 3-{3-cyclopropyl-5-[(2,2-difluoro-7-methyl-6,7-dihydro-2H-furo[2,3-f][1,3]benzodioxole-7-carbonyl)amino]-6-oxopyridazin-1(6H)-yl}benzoate]: the EC50 amounted to 210 nM and the “Maximum % activity (%)” value turned out to be 132%.

Take `CN1CC2CN(c3cccc(NC(=O)C4(C)COc5cc6c(cc54)OC(F)(F)O6)n3)CC2C1` (centres unmarked) [Example 107, 2,2-difluoro-7-methyl-N-[6-(5-methylhexahydropyrrolo[3,4-c]pyrrol-2(1H)-yl)pyridin-2-yl]-6,7-dihydro-2H-furo[2,3-f][1,3]benzodioxole-7-carboxamide]: the EC50 came out at 3040 nM and the “Maximum % activity (%)” value is 136%.

As to `CC1(C(=O)O)CN(c2cccc(NC(=O)[C@@]3(C)COc4cc5c(cc43)OC(F)(F)O5)n2)C1` [Example 96, 1-(6-{[(7R)-2,2-difluoro-7-methyl-6,7-dihydro-2H-furo[2,3-f][1,3]benzodioxole-7-carbonyl]amino}pyridin-2-yl)-3-methylazetidine-3-carboxylic acid], the EC50 worked out at 1310 nM and the “Maximum % activity (%)” value was 139%.

As for `CC1(C(=O)Nc2cccc(-c3ccc(C(=O)O)cc3)c2)COc2cc3c(cc21)OC(F)(F)O3` (centres unmarked) [Example 69, 3′-[(2,2-difluoro-7-methyl-6,7-dihydro-2H-furo[2,3-f][1,3]benzodioxole-7-carbonyl)amino][1,1′-biphenyl]-4-carboxylic acid], the midpoint of the response, the EC50, lay at 1390 nM and the “Maximum % activity (%)” value is reported as 183%.

For `CC(C)(O)CNC(=O)[C@H]1CC[C@H]([C@H]2C[C@@H](NC(=O)[C@@]3(C)COc4cc5c(cc43)OC(F)(F)O5)c3ccc(OC(F)(F)F)cc3O2)CC1` [Example 267, (7R)-2,2-difluoro-N-[(2R,4R)-2-{trans-4-[(2-hydroxy-2-methylpropyl)carbamoyl]cyclohexyl}-7-(trifluoromethoxy)-3,4-dihydro-2H-1-benzopyran-4-yl]-7-methyl-6,7-dihydro-2H-furo[2,3-f][1,3]benzodioxole-7-carboxamide], the EC50 amounted to 90 nM and the “Maximum % activity (%)” value is listed as 166%.

Take `Cc1ccc(C(=O)O)cc1-c1cccc(NC(=O)[C@@]2(C)COc3cc4c(cc32)OC(F)(F)O4)n1` [Example 129, 3-(6-{[(7R)-2,2-difluoro-7-methyl-6,7-dihydro-2H-furo[2,3-f][1,3]benzodioxole-7-carbonyl]amino}pyridin-2-yl)-4-methylbenzoic acid]: a half-maximal effect (EC50) was put at 2260 nM and the “Maximum % activity (%)” value is given as 129%.

With `COc1ccc2c(c1)O[C@@H](c1ccc(OCc3ccccc3)nn1)C[C@H]2NC(=O)[C@@]1(C)COc2cc3c(cc21)OC(F)(F)O3` (single isomer, unassigned) [Example 273], the EC50 was 120 nM and the “Maximum % activity (%)” value was determined as 92%.

`CC(C)(COCc1ccccc1)c1cc2cc(NC(=O)[C@@]3(C)COc4cc5c(cc43)OC(F)(F)O5)c(F)cc2[nH]1` [Example 204, (7R)—N-{2-[1-(benzyloxy)-2-methylpropan-2-yl]-6-fluoro-1H-indol-5-yl}-2,2-difluoro-7-methyl-6,7-dihydro-2H-furo[2,3-f][1,3]benzodioxole-7-carboxamide]: the EC50 was 310 nM and the “Maximum % activity (%)” value came to 134%.

On to `Cc1ccc(-c2cccc(C(=O)O)c2)nc1NC(=O)[C@@]1(C)COc2cc3c(cc21)OC(F)(F)O3` [Example 84, 3-(6-{[(7R)-2,2-difluoro-7-methyl-6,7-dihydro-2H-furo[2,3-f][1,3]benzodioxole-7-carbonyl]amino}-5-methylpyridin-2-yl)benzoic acid], for which it took 7510 nM to reach a half-maximal effect (EC50) and the “Maximum % activity (%)” value was 46%.

With `COc1ccc2c(c1)O[C@@H]([C@H]1CC[C@H](C(=O)O)CC1)C[C@H]2NC(=O)[C@@]1(C)COc2c1cc1c(c2I)OC(F)(F)O1` [Example 291, trans-4-[(2R,4R)-4-{[(7R)-2,2-difluoro-4-iodo-7-methyl-6,7-dihydro-2H-furo[2,3-f][1,3]benzodioxole-7-carbonyl]amino}-7-methoxy-3,4-dihydro-2H-1-benzopyran-2-yl]cyclohexane-1-carboxylic acid], the midpoint of the response, the EC50, lay at 670 nM and the “Maximum % activity (%)” value turned out to be 117%.

In the case of `C[C@]1(C(=O)N[C@H]2C[C@@H](c3ccc(C(=O)O)cc3)O[C@@H](c3ccccc3)C2)COc2cc3c(cc21)OC(F)(F)O3` (single isomer, unassigned) [Example 45], the EC50 stood at 920 nM and the “Maximum % activity (%)” value is on record as 111%.

On to `C[C@]1(C(=O)N[C@H]2C[C@@H](C3CCN(C[C@H](O)CO)CC3)Oc3cc(OC(F)(F)F)ccc32)COc2cc3c(cc21)OC(F)(F)O3` [Example 188, (7R)—N-[(2S,4S)-2-{1-[(2S)-2,3-dihydroxypropyl]piperidin-4-yl}-7-(trifluoromethoxy)-3,4-dihydro-2H-1-benzopyran-4-yl]-2,2-difluoro-7-methyl-6,7-dihydro-2H-furo[2,3-f][1,3]benzodioxole-7-carboxamide], for which the EC50 was greater than 20000 nM and the “Maximum % activity (%)” value is reported as 20%.

On to `COc1ccc2c(c1)O[C@@H](c1ccc(C(=O)O)cc1)C[C@H]2NC(=O)[C@]1(C)CCc2cc3c(cc21)OC(F)(F)O3` (single isomer, unassigned) [Example 49], for which it took 210 nM to reach a half-maximal effect (EC50) and the “Maximum % activity (%)” value is 116%.

For the compound “(7R)—N-(6-{[2R)-2,3-dihydroxypropyl]amino}pyridin-2-yl)-2,2-difluoro-7-methyl-6,7-dihydro-2H-furo[2,3-f][1,3]benzodioxole-7-carboxamide [Example 92]”, the EC50 stood at 1720 nM and the “Maximum % activity (%)” value came out at 98%.

Regarding `COC(=O)c1cccc([C@H]2C[C@@H](NC(=O)[C@]3(C)COc4cc5c(cc43)OC(F)(F)O5)c3ccc(OC)cc3O2)c1` [Example 12], the EC50 is greater than 20000 nM and the “Maximum % activity (%)” value is recorded as 14%.

`C[C@]1(C(=O)Nc2cc(Br)cn(C[C@@H](O)CO)c2=O)COc2cc3c(cc21)OC(F)(F)O3` [Example 98, (7R)—N-{5-bromo-1-[(2R)-2,3-dihydroxypropyl]-2-oxo-1,2-dihydropyridin-3-yl}-2,2-difluoro-7-methyl-6,7-dihydro-2H-furo[2,3-f][1,3]benzodioxole-7-carboxamide]: a half-maximal response (EC50) required 1140 nM and the “Maximum % activity (%)” value turned out to be 143%.

For the compound `COc1ccc2c(c1)O[C@@H](c1ccc(C(=O)Nc3ccccc3O)cn1)C[C@H]2NC(=O)[C@@]1(C)COc2cc3c(cc21)OC(F)(F)O3` [Example 208, 6-[(2R,4R)-4-{[(7R)-2,2-difluoro-7-methyl-6,7-dihydro-2H-furo[2,3-f][1,3]benzodioxole-7-carbonyl]amino}-7-methoxy-3,4-dihydro-2H-1-benzopyran-2-yl]-N-(2-hydroxyphenyl)pyridine-3-carboxamide], the midpoint of the response, the EC50, lay at 10 nM and the “Maximum % activity (%)” value was found to be 103%.

As to `CC(C)(COCc1ccccc1)c1cc2cc(NC(=O)[C@]3(C)COc4cc5c(cc43)OC(F)(F)O5)c(F)cc2n1C[C@@H](O)COCc1ccccc1` [Example 205, (7S)—N-{1-[(2R)-3-(benzyloxy)-2-hydroxypropyl]-2-[1-(benzyloxy)-2-methylpropan-2-yl]-6-fluoro-1H-indol-5-yl}-2,2-difluoro-7-methyl-6,7-dihydro-2H-furo[2,3-f][1,3]benzodioxole-7-carboxamide], the EC50 is greater than 20000 nM and the “Maximum % activity (%)” value came out at 18%.
